Laboratory results taken from PubChem BioAssay (NCI).
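Protocol summary: plate cells (96-well), add compound at 5 concentrations, incubate 48 h, interpolate endpoints linearly. The concentration for full growth arrest is given as TGI.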

How the values were obtained:
Test in all cases: NCI-60 cell line screen, 48 h
786-0 renal = test system: 786-0 renal
A549 NSCLC = test system: A549 NSCLC
ACHN renal = test system: ACHN renal
BT-549 breast = test system: BT-549 breast
CAKI-1 renal = test system: CAKI-1 renal
CCRF-CEM leukemia = test system: CCRF-CEM leukemia
COLO 205 colon = test system: COLO 205 colon
DU-145 prostate = test system: DU-145 prostate
EKVX NSCLC = test system: EKVX NSCLC
HCC-2998 colon = test system: HCC-2998 colon
HCT-116 colon = test system: HCT-116 colon
HCT-15 colon = test system: HCT-15 colon
HL-60(TB) leukemia = test system: HL-60(TB) leukemia
HOP-62 NSCLC = test system: HOP-62 NSCLC
HOP-92 NSCLC = test system: HOP-92 NSCLC
HS 578T breast = test system: HS 578T breast
HT29 colon = test system: HT29 colon
IGROV1 ovarian = test system: IGROV1 ovarian
K-562 leukemia = test system: K-562 leukemia
KM12 colon = test system: KM12 colon
LOX IMVI melanoma = test system: LOX IMVI melanoma
M14 melanoma = test system: M14 melanoma
MALME-3M melanoma = test system: MALME-3M melanoma
MCF7 breast = test system: MCF7 breast
MDA-MB-231 breast = test system: MDA-MB-231 breast
MDA-MB-435 = test system: MDA-MB-435
MDA-N = test system: MDA-N
MOLT-4 leukemia = test system: MOLT-4 leukemia
NCI-H226 lung = test system: NCI-H226 lung
NCI-H23 lung = test system: NCI-H23 lung
NCI-H460 lung = test system: NCI-H460 lung
NCI-H522 lung = test system: NCI-H522 lung
NCI/ADR-RES ovarian = test system: NCI/ADR-RES ovarian
OVCAR-3 ovarian = test system: OVCAR-3 ovarian
OVCAR-4 ovarian = test system: OVCAR-4 ovarian
OVCAR-5 ovarian = test system: OVCAR-5 ovarian
OVCAR-8 ovarian = test system: OVCAR-8 ovarian
PC-3 prostate = test system: PC-3 prostate
RXF 393 renal = test system: RXF 393 renal
SF-268 CNS = test system: SF-268 CNS
SF-539 CNS = test system: SF-539 CNS
SK-MEL-2 melanoma = test system: SK-MEL-2 melanoma
SK-MEL-28 melanoma = test system: SK-MEL-28 melanoma
SK-MEL-5 melanoma = test system: SK-MEL-5 melanoma
SK-OV-3 ovarian = test system: SK-OV-3 ovarian
SN12C renal = test system: SN12C renal
SNB-19 CNS = test system: SNB-19 CNS
SNB-75 CNS = test system: SNB-75 CNS
SR leukemia = test system: SR leukemia
SW-620 colon = test system: SW-620 colon
T-47D breast = test system: T-47D breast
TK-10 renal = test system: TK-10 renal
U251 CNS = test system: U251 CNS
UACC-257 melanoma = test system: UACC-257 melanoma
UACC-62 melanoma = test system: UACC-62 melanoma
UO-31 renal = test system: UO-31 renal

## Cc1ccc(S(=O)(=O)Oc2ccc(OS(=O)(=O)c3ccc(C)cc3)c3c2C(=O)c2ccccc2C3=O)cc1
786-0 renal
  TGI: > 100 µM
A549 NSCLC
  TGI: > 100 µM
ACHN renal
  TGI: > 100 µM
BT-549 breast
  TGI: > 100 µM
CAKI-1 renal
  TGI: > 100 µM
CCRF-CEM leukemia
  TGI: > 100 µM
COLO 205 colon
  TGI: > 100 µM
DU-145 prostate
  TGI: > 100 µM
EKVX NSCLC
  TGI: > 100 µM
HCC-2998 colon
  TGI: > 100 µM
HCT-116 colon
  TGI: > 100 µM
HCT-15 colon
  TGI: > 100 µM
HL-60(TB) leukemia
  TGI: > 100 µM
HOP-62 NSCLC
  TGI: > 100 µM
HOP-92 NSCLC
  TGI: > 100 µM
HS 578T breast
  TGI: > 100 µM
HT29 colon
  TGI: > 100 µM
IGROV1 ovarian
  TGI: > 100 µM
K-562 leukemia
  TGI: > 100 µM
KM12 colon
  TGI: > 100 µM
LOX IMVI melanoma
  TGI: > 100 µM
M14 melanoma
  TGI: > 100 µM
MALME-3M melanoma
  TGI: > 100 µM
MCF7 breast
  TGI: > 100 µM
MDA-MB-231 breast
  TGI: > 100 µM
MDA-MB-435
  TGI: > 100 µM
MDA-N
  TGI: > 100 µM
MOLT-4 leukemia
  TGI: > 100 µM
NCI-H226 lung
  TGI: > 100 µM
NCI-H23 lung
  TGI: > 100 µM
NCI-H460 lung
  TGI: > 100 µM
NCI-H522 lung
  TGI: > 100 µM
NCI/ADR-RES ovarian
  TGI: > 100 µM
OVCAR-3 ovarian
  TGI: > 100 µM
OVCAR-4 ovarian
  TGI: > 100 µM
OVCAR-5 ovarian
  TGI: > 100 µM
OVCAR-8 ovarian
  TGI: > 100 µM
PC-3 prostate
  TGI: > 100 µM
RXF 393 renal
  TGI: 68.6 µM
SF-268 CNS
  TGI: > 100 µM
SF-539 CNS
  TGI: > 100 µM
SK-MEL-2 melanoma
  TGI: > 100 µM
SK-MEL-28 melanoma
  TGI: > 100 µM
SK-MEL-5 melanoma
  TGI: > 100 µM
SK-OV-3 ovarian
  TGI: > 100 µM
SN12C renal
  TGI: > 100 µM
SNB-19 CNS
  TGI: > 100 µM
SNB-75 CNS
  TGI: 64.1 µM
SR leukemia
  TGI: > 100 µM
SW-620 colon
  TGI: > 100 µM
T-47D breast
  TGI: > 100 µM
TK-10 renal
  TGI: > 100 µM
U251 CNS
  TGI: > 100 µM
UACC-257 melanoma
  TGI: > 100 µM
UACC-62 melanoma
  TGI: > 100 µM
UO-31 renal
  TGI: > 100 µM
